Source: ChEMBL document CHEMBL3045868, “Synthesis and antibacterial activities of para-alkoxy phenyl--ketoaldehyde derivatives” (Med Chem Res, 2013)

How the values were obtained:
Assay type in all cases: functional
[1] = test system: Staphylococcus aureus; experiment: Antibacterial activity against methicillin-resistant Staphylococcus aureus assessed as growth inhibition after 16 to 18 hr by NCCLS agar dilution method
[2] = test system: Staphylococcus aureus; experiment: Bactericidal activity against Staphylococcus aureus clinical isolate 9 after 24 hr; details: isolate 9, 24 h
[3] = test system: Staphylococcus aureus; experiment: Antibacterial activity against Staphylococcus aureus clinical isolate 8 assessed as growth inhibition at pH 5 after 16 to 18 hr by NCCLS agar dilution method
[4] = test system: Staphylococcus aureus; experiment: Antibacterial activity against Staphylococcus aureus clinical isolate 19 assessed as growth inhibition at pH 9 after 16 to 18 hr by NCCLS agar dilution method
[5] = test system: Staphylococcus aureus; experiment: Antibacterial activity against methicillin-resistant Staphylococcus aureus isolate 3 assessed as growth inhibition after 16 to 18 hr by NCCLS agar dilution method
[6] = test system: Staphylococcus aureus; experiment: Antibacterial activity against Staphylococcus aureus clinical isolate 8 assessed as growth inhibition at pH 9 after 16 to 18 hr by NCCLS agar dilution method
[7] = test system: Staphylococcus aureus; experiment: Antibacterial activity against methicillin-resistant Staphylococcus aureus isolate 2 assessed as growth inhibition after 16 to 18 hr by NCCLS agar dilution method
[8] = test system: Staphylococcus aureus; experiment: Antibacterial activity against Staphylococcus aureus clinical isolate 18 assessed as growth inhibition at pH 7 after 16 to 18 hr by NCCLS agar dilution method
[9] = test system: Staphylococcus aureus; experiment: Antibacterial activity against Staphylococcus aureus clinical isolate 13 assessed as growth inhibition at pH 5 after 16 to 18 hr by NCCLS agar dilution method
[10] = test system: Staphylococcus aureus; experiment: Antibacterial activity against Staphylococcus aureus clinical isolate assessed as growth inhibition after 16 to 18 hr by NCCLS agar dilution method
[11] = test system: Staphylococcus aureus; experiment: Bactericidal activity against methicillin-resistant Staphylococcus aureus isolate 3 after 24 hr; details: isolate 3, 24 h
[12] = test system: Staphylococcus aureus; experiment: Antibacterial activity against Staphylococcus aureus clinical isolate 22 assessed as growth inhibition at pH 5 after 16 to 18 hr by NCCLS agar dilution method
[13] = test system: Staphylococcus aureus; experiment: Antibacterial activity against Staphylococcus aureus clinical isolate 5 assessed as growth inhibition at pH 9 after 16 to 18 hr by NCCLS agar dilution method
[14] = test system: Staphylococcus aureus; experiment: Antibacterial activity against Staphylococcus aureus clinical isolate 7 assessed as growth inhibition at pH 5 after 16 to 18 hr by NCCLS agar dilution method
[15] = test system: Staphylococcus aureus; experiment: Antibacterial activity against Staphylococcus aureus clinical isolate 11 assessed as growth inhibition at pH 5 after 16 to 18 hr by NCCLS agar dilution method
[16] = test system: Staphylococcus aureus; experiment: Antibacterial activity against Staphylococcus aureus ATCC 25923 assessed as growth inhibition after 16 to 18 hr by NCCLS agar dilution method
[17] = test system: Helicobacter pylori; experiment: Antibacterial activity against Helicobacter pylori 06-8 assessed as growth inhibition after 16 to 18 hr NCCLS agar dilution method
[18] = test system: Staphylococcus aureus; experiment: Antibacterial activity against Staphylococcus aureus clinical isolate 14 assessed as growth inhibition at pH 5 after 16 to 18 hr by NCCLS agar dilution method
[19] = test system: Staphylococcus aureus; experiment: Antibacterial activity against Staphylococcus aureus clinical isolate 23 assessed as growth inhibition at pH 9 after 16 to 18 hr by NCCLS agar dilution method
[20] = test system: Helicobacter pylori; experiment: Antibacterial activity against Helicobacter pylori 05-9 assessed as growth inhibition after 16 to 18 hr NCCLS agar dilution method
[21] = test system: Staphylococcus aureus; experiment: Bactericidal activity against methicillin-resistant Staphylococcus aureus after 24 hr
[22] = test system: Staphylococcus aureus; experiment: Antibacterial activity against Staphylococcus aureus clinical isolate 15 assessed as growth inhibition at pH 7 after 16 to 18 hr by NCCLS agar dilution method
[23] = test system: Staphylococcus aureus; experiment: Antibacterial activity against Staphylococcus aureus clinical isolate 12 assessed as growth inhibition at pH 9 after 16 to 18 hr by NCCLS agar dilution method
[24] = test system: Staphylococcus aureus; experiment: Antibacterial activity against Staphylococcus aureus clinical isolate 4 assessed as growth inhibition at pH 5 after 16 to 18 hr by NCCLS agar dilution method
[25] = test system: Staphylococcus aureus; experiment: Antibacterial activity against Staphylococcus aureus clinical isolate 10 assessed as growth inhibition at pH 7 after 16 to 18 hr by NCCLS agar dilution method
[26] = test system: Helicobacter pylori; experiment: Antibacterial activity against Helicobacter pylori 06-2 assessed as growth inhibition after 16 to 18 hr NCCLS agar dilution method
[27] = test system: Staphylococcus aureus; experiment: Antibacterial activity against Staphylococcus aureus clinical isolate 5 assessed as growth inhibition at pH 5 after 16 to 18 hr by NCCLS agar dilution method
[28] = test system: Staphylococcus aureus; experiment: Antibacterial activity against Staphylococcus aureus clinical isolate 7 assessed as growth inhibition at pH 7 after 16 to 18 hr by NCCLS agar dilution method
[29] = test system: Staphylococcus aureus; experiment: Antibacterial activity against Staphylococcus aureus clinical isolate 1 assessed as growth inhibition at pH 9 after 16 to 18 hr by NCCLS agar dilution method
[30] = test system: Staphylococcus aureus; experiment: Bactericidal activity against Staphylococcus aureus clinical isolate 2 after 24 hr; details: isolate 2, 24 h
[31] = test system: Staphylococcus aureus; experiment: Antibacterial activity against methicillin-resistant Staphylococcus aureus isolate 5 assessed as growth inhibition after 16 to 18 hr by NCCLS agar dilution method
[32] = test system: Staphylococcus aureus; experiment: Antibacterial activity against Staphylococcus aureus clinical isolate 9 assessed as growth inhibition at pH 7 after 16 to 18 hr by NCCLS agar dilution method
[33] = test system: Staphylococcus aureus; experiment: Bactericidal activity against Staphylococcus aureus clinical isolate 1 after 24 hr; details: isolate 1, 24 h
[34] = test system: Staphylococcus aureus; experiment: Antibacterial activity against Staphylococcus aureus clinical isolate 21 assessed as growth inhibition at pH 5 after 16 to 18 hr by NCCLS agar dilution method
[35] = test system: Staphylococcus aureus; experiment: Bactericidal activity against methicillin-resistant Staphylococcus aureus isolate 1 after 24 hr; details: isolate 1, 24 h
[36] = test system: Staphylococcus aureus; experiment: Bactericidal activity against Staphylococcus aureus clinical isolate after 24 hr
[37] = test system: Staphylococcus aureus; experiment: Antibacterial activity against Staphylococcus aureus clinical isolate 22 assessed as growth inhibition at pH 7 after 16 to 18 hr by NCCLS agar dilution method
[38] = test system: Staphylococcus aureus; experiment: Antibacterial activity against Staphylococcus aureus clinical isolate 23 assessed as growth inhibition at pH 5 after 16 to 18 hr by NCCLS agar dilution method
[39] = test system: Staphylococcus aureus; experiment: Antibacterial activity against Staphylococcus aureus clinical isolate 4 assessed as growth inhibition at pH 9 after 16 to 18 hr by NCCLS agar dilution method
[40] = test system: Staphylococcus aureus; experiment: Antibacterial activity against Staphylococcus aureus clinical isolate 17 assessed as growth inhibition at pH 9 after 16 to 18 hr by NCCLS agar dilution method
[41] = test system: Helicobacter pylori; experiment: Antibacterial activity against Helicobacter pylori 05-12 assessed as growth inhibition after 16 to 18 hr NCCLS agar dilution method
[42] = test system: Staphylococcus aureus; experiment: Antibacterial activity against Staphylococcus aureus clinical isolate 9 assessed as growth inhibition after 16 to 18 hr by NCCLS agar dilution method
[43] = test system: Staphylococcus aureus; experiment: Bactericidal activity against Staphylococcus aureus clinical isolate 4 after 24 hr; details: isolate 4, 24 h

CO/N=C/CC(=O)c1ccc(OC)cc1
8 mg/L: MIC50 [1] | MIC90 [1] | MIC [5] | MIC [6] | MIC [7] | MIC [13] | MIC [19] | MIC [22] | MIC [23] | MIC [28] | MIC [31] | MIC [39]
256 mg/L: MBC [11] | MBC50 [21] | MBC90 [21]
32 mg/L: MIC [3] | MIC [9] | MIC [15] | MIC [17] | MIC [18] | MIC [25] | MIC [26] | MIC [32] | MIC [34]
16 mg/L: MIC [4] | MIC [8] | MIC50 [10] | MIC90 [10] | MIC [12] | MIC [14] | MIC [27] | MIC [29] | MIC [37] | MIC [38] | MIC [40] | MIC [42]
128 mg/L: MBC [2] | MBC [33] | MBC [35] | MBC50 (60.1); MBC90 (60.2) ([36]; read-out: MIC90) | MBC [43]
64 mg/L: MIC [20] | MIC [24] | MBC [30] | MBC50 (60.1); MBC90 (60.2) ([36]; read-out: MIC50)
2 mg/L: MIC [16]
> 128 mg/L: MIC [41]
